Experimental data from patent US12077503B2, “Substituted cyclic amides and their use as herbicides” (FMC CORPORATION, priority 2015, dated 2024).

How the values were obtained:
Assay type in all cases: in vivo
[1] = system: giant foxtail (Setaria faberi); experiment: Test G Post-Emergence Protocol; details: Setaria faberi, post-emergence, 312 h; for pest or weed control at 15.625 g/ha: 15.625 g ai/ha, evaluated after 13 days (100=total damage to plant; 0=no damage to plant), read-out: Foxtail, Giant damage rating; for pest or weed control at 62.5 g/ha: 62.5 g ai/ha, read-out: Foxtail, Giant damage rating (100=total damage to plant; 0=no damage to plant); for pest or weed control at 62.5 g/ha / pest or weed control at 250 g/ha: evaluated after 13 days; for pest or weed control at 250 g/ha: 250 g ai/ha, read-out: damage to plant, Foxtail, Giant (100=total damage to plant; 0=no damage to plant)
Outline: (§1)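 Damage was rated 13 days after treatment from 0 (none) to 100 (plant killed). Compound was applied as a spray at 15.625, 62.5 or 250 g/ha in 50:50 acetone/water containing 0.5% Tween 20, onto 8-day-old potted plants kept in a glasshouse (24/16 °C, 14 h light, 65% humidity).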

[2] = system: redroot pigweed (Amaranthus retroflexus); experiment: Test G Post-Emergence Protocol; details: Amaranthus retroflexus, post-emergence, 312 h; for pest or weed control at 15.625 g/ha: 15.625 g ai/ha, evaluated after 13 days (100=total damage to plant; 0=no damage to plant), read-out: Pigweed, Redroot damage rating; for pest or weed control at 62.5 g/ha: 62.5 g ai/ha, read-out: Pigweed, Redroot damage rating (100=total damage to plant; 0=no damage to plant); for pest or weed control at 62.5 g/ha / pest or weed control at 250 g/ha: evaluated after 13 days; for pest or weed control at 250 g/ha: 250 g ai/ha, read-out: damage to plant, Pigweed, Redroot (100=total damage to plant; 0=no damage to plant)
Outline: as §1

[3] = system: corn (Zea mays); experiment: Test G Post-Emergence Protocol; details: Zea mays, post-emergence, 312 h; for plant injury at 15.625 g/ha: 15.625 g ai/ha, evaluated after 13 days (100=total damage to plant; 0=no damage to plant), read-out: Corn damage rating; for plant injury at 62.5 g/ha: 62.5 g ai/ha, read-out: Corn damage rating (100=total damage to plant; 0=no damage to plant); for plant injury at 62.5 g/ha / plant injury at 250 g/ha: evaluated after 13 days; for plant injury at 250 g/ha: 250 g ai/ha, read-out: damage to plant, Corn (100=total damage to plant; 0=no damage to plant)
Outline: as §1

[4] = system: velvetleaf (Abutilon theophrasti); experiment: Test G Post-Emergence Protocol; details: Abutilon theophrasti, post-emergence, 312 h; for pest or weed control at 15.625 g/ha: 15.625 g ai/ha, evaluated after 13 days (100=total damage to plant; 0=no damage to plant), read-out: Velvetleaf damage rating; for pest or weed control at 62.5 g/ha: 62.5 g ai/ha, read-out: Velvetleaf damage rating (100=total damage to plant; 0=no damage to plant); for pest or weed control at 62.5 g/ha / pest or weed control at 250 g/ha: evaluated after 13 days; for pest or weed control at 250 g/ha: 250 g ai/ha, read-out: damage to plant, Velvetleaf (100=total damage to plant; 0=no damage to plant)
Outline: as §1

[5] = system: barnyardgrass (Echinochloa crus-galli); experiment: Test G Post-Emergence Protocol; details: Echinochloa crus-galli, post-emergence, 312 h; for pest or weed control at 15.625 g/ha: 15.625 g ai/ha, evaluated after 13 days (100=total damage to plant; 0=no damage to plant), read-out: Barnyardgrass damage rating; for pest or weed control at 62.5 g/ha: 62.5 g ai/ha, read-out: Barnyardgrass damage rating (100=total damage to plant; 0=no damage to plant); for pest or weed control at 62.5 g/ha / pest or weed control at 250 g/ha: evaluated after 13 days; for pest or weed control at 250 g/ha: 250 g ai/ha, read-out: damage to plant, Barnyardgrass (100=total damage to plant; 0=no damage to plant)
Outline: as §1

[6] = system: ivy-leaved morning glory (Ipomoea hederacea); experiment: Test G Post-Emergence Protocol; details: Ipomoea, post-emergence, 312 h; for pest or weed control at 15.625 g/ha: 15.625 g ai/ha, evaluated after 13 days (100=total damage to plant; 0=no damage to plant), read-out: Morningglory, Ivy-leaved damage rating; for pest or weed control at 62.5 g/ha: 62.5 g ai/ha, read-out: Morningglory, Ivy-leaved damage rating (100=total damage to plant; 0=no damage to plant); for pest or weed control at 62.5 g/ha / pest or weed control at 250 g/ha: evaluated after 13 days; for pest or weed control at 250 g/ha: 250 g ai/ha, read-out: damage to plant, Morningglory, Ivy-leaved (100=total damage to plant; 0=no damage to plant)
Outline: as §1

[7] = system: giant foxtail (Setaria faberi); experiment: Test G Pre-Emergence Protocol; details: Setaria faberi, pre-emergence, 312 h, evaluated after 13 days; for pest or weed control at 15.625 g/ha: 15.625 g ai/ha; for pest or weed control at 15.625 g/ha / pest or weed control at 250 g/ha: read-out: Foxtail, Giant damage rating (100=total damage to plant; 0=no damage to plant); for pest or weed control at 62.5 g/ha: 62.5 g ai/ha, 100=total damage to plant, 0=no damage to plant, read-out: plant damage rating, Foxtail, Giant; for pest or weed control at 250 g/ha: 250 g ai/ha
Outline: (§2)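 Spraying took place one day after sowing, at 15.625, 62.5 or 250 g/ha, using an acetone/water (50:50) spray solution containing 0.5% Tween 20. Plants were kept under glasshouse conditions (24/16 °C, 14 h light, 65% humidity, watered twice daily), and injury was rated 0–100 at day 13.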

[8] = system: redroot pigweed (Amaranthus retroflexus); experiment: Test G Pre-Emergence Protocol; details: Amaranthus retroflexus, pre-emergence, 312 h, evaluated after 13 days; for pest or weed control at 15.625 g/ha: 15.625 g ai/ha; for pest or weed control at 15.625 g/ha / pest or weed control at 250 g/ha: read-out: Pigweed, Redroot damage rating (100=total damage to plant; 0=no damage to plant); for pest or weed control at 62.5 g/ha: 62.5 g ai/ha, 100=total damage to plant, 0=no damage to plant, read-out: plant damage rating, Pigweed, Redroot; for pest or weed control at 250 g/ha: 250 g ai/ha
Outline: as §2

[9] = system: corn (Zea mays); experiment: Test G Pre-Emergence Protocol; details: Zea mays, pre-emergence, 312 h, evaluated after 13 days; for plant injury at 15.625 g/ha: 15.625 g ai/ha; for plant injury at 15.625 g/ha / plant injury at 250 g/ha: read-out: Corn damage rating (100=total damage to plant; 0=no damage to plant); for plant injury at 62.5 g/ha: 62.5 g ai/ha, 100=total damage to plant, 0=no damage to plant, read-out: plant damage rating, Corn; for plant injury at 250 g/ha: 250 g ai/ha
Outline: as §2

[10] = system: velvetleaf (Abutilon theophrasti); experiment: Test G Pre-Emergence Protocol; details: Abutilon theophrasti, pre-emergence, 312 h, evaluated after 13 days; for pest or weed control at 15.625 g/ha: 15.625 g ai/ha; for pest or weed control at 15.625 g/ha / pest or weed control at 250 g/ha: read-out: Velvetleaf damage rating (100=total damage to plant; 0=no damage to plant); for pest or weed control at 62.5 g/ha: 62.5 g ai/ha, 100=total damage to plant, 0=no damage to plant, read-out: plant damage rating, Velvetleaf; for pest or weed control at 250 g/ha: 250 g ai/ha
Outline: as §2

[11] = system: barnyardgrass (Echinochloa crus-galli); experiment: Test G Pre-Emergence Protocol; details: Echinochloa crus-galli, pre-emergence, 312 h, evaluated after 13 days; for pest or weed control at 15.625 g/ha: 15.625 g ai/ha, read-out: Barnyard grass damage rating (100=total damage to plant; 0=no damage to plant); for pest or weed control at 62.5 g/ha: 62.5 g ai/ha, 100=total damage to plant, 0=no damage to plant, read-out: plant damage rating, Barnyardgrass; for pest or weed control at 250 g/ha: 250 g ai/ha, read-out: Barnyardgrass damage rating (100=total damage to plant; 0=no damage to plant)
Outline: as §2

[12] = system: ivy-leaved morning glory (Ipomoea hederacea); experiment: Test G Pre-Emergence Protocol; details: Ipomoea, pre-emergence, 312 h, evaluated after 13 days; for pest or weed control at 15.625 g/ha: 15.625 g ai/ha, read-out: Morning-glory, Ivy-leaved damage rating (100=total damage to plant; 0=no damage to plant); for pest or weed control at 62.5 g/ha: 62.5 g ai/ha, 100=total damage to plant, 0=no damage to plant, read-out: plant damage rating, Morningglory, Ivy-leaved; for pest or weed control at 250 g/ha: 250 g ai/ha, read-out: Morningglory, Ivy-leaved damage rating (100=total damage to plant; 0=no damage to plant)
Outline: as §2

Row | Compound | pest or weed control at 15.625 g/ha [1] | pest or weed control at 62.5 g/ha [1] | pest or weed control at 250 g/ha [1] | pest or weed control at 15.625 g/ha [2] | pest or weed control at 62.5 g/ha [2] | pest or weed control at 250 g/ha [2] | plant injury at 15.625 g/ha [3] | plant injury at 62.5 g/ha [3] | plant injury at 250 g/ha [3] | pest or weed control at 15.625 g/ha [4] | pest or weed control at 62.5 g/ha [4] | pest or weed control at 250 g/ha [4] | pest or weed control at 15.625 g/ha [5] | pest or weed control at 62.5 g/ha [5] | pest or weed control at 250 g/ha [5] | pest or weed control at 15.625 g/ha [6] | pest or weed control at 62.5 g/ha [6] | pest or weed control at 250 g/ha [6] | pest or weed control at 15.625 g/ha [7] | pest or weed control at 62.5 g/ha [7] | also measured
1 | Cc1cc(Cl)ccc1NC(=O)[C@H]1C(=O)N(C)C[C@@H]1c1ccc(C(F)(F)F)cc1 (racemic) [Compound 1442] | 0% | 0% | 0% | 0% | 0% | 0% | 0% | 0% | 0% | 0% | 0% | 0% | 0% | 0% | 0% | 0% | 0% | 0% | 0% | 0% | pest or weed control at 250 g/ha [7]: 30%; pest or weed control at 15.625 g/ha [8]: 0%; pest or weed control at 62.5 g/ha [8]: 0%; pest or weed control at 250 g/ha [8]: 10%; plant injury at 15.625 g/ha [9]: 0%; plant injury at 62.5 g/ha [9]: 0%; plant injury at 250 g/ha [9]: 0%; pest or weed control at 15.625 g/ha [10]: 0%; pest or weed control at 62.5 g/ha [10]: 0%; pest or weed control at 250 g/ha [10]: 10%; pest or weed control at 15.625 g/ha [11]: 0%; pest or weed control at 62.5 g/ha [11]: 0%; pest or weed control at 250 g/ha [11]: 0%; pest or weed control at 15.625 g/ha [12]: 0%; pest or weed control at 62.5 g/ha [12]: 0%; pest or weed control at 250 g/ha [12]: 0%
2 | C=C(C)c1ccccc1NC(=O)[C@H]1C(=O)N(C)C[C@@H]1c1ccc(C(F)(F)F)cc1 (racemic) [Compound 1449] | 0% | 20% | 60% | 0% | 0% | 30% | 0% | 0% | 10% | 0% | 0% | 0% | 0% | 10% | 30% | 0% | 0% | 10% | 10% | 70% | pest or weed control at 250 g/ha [7]: 80%; pest or weed control at 15.625 g/ha [8]: 0%; pest or weed control at 62.5 g/ha [8]: 0%; pest or weed control at 250 g/ha [8]: 0%; plant injury at 15.625 g/ha [9]: 0%; plant injury at 62.5 g/ha [9]: 0%; plant injury at 250 g/ha [9]: 0%; pest or weed control at 15.625 g/ha [10]: 0%; pest or weed control at 62.5 g/ha [10]: 0%; pest or weed control at 250 g/ha [10]: 0%; pest or weed control at 15.625 g/ha [11]: 0%; pest or weed control at 62.5 g/ha [11]: 0%; pest or weed control at 250 g/ha [11]: 30%; pest or weed control at 15.625 g/ha [12]: 0%; pest or weed control at 62.5 g/ha [12]: 0%; pest or weed control at 250 g/ha [12]: 0%
3 | CN1C[C@H](c2ccc(C(F)(F)F)cc2)[C@@H](C(=O)Nc2ccc(C(F)(F)F)c(F)c2F)C1=O (racemic) [Compound 1451] | 0% | 0% | 0% | 0% | 0% | 0% | 0% | 0% | 0% | 0% | 0% | 0% | 0% | 0% | 0% | 0% | 0% | 0% | 0% | 0% | pest or weed control at 250 g/ha [7]: 0%; pest or weed control at 15.625 g/ha [8]: 0%; pest or weed control at 62.5 g/ha [8]: 0%; pest or weed control at 250 g/ha [8]: 0%; plant injury at 15.625 g/ha [9]: 0%; plant injury at 62.5 g/ha [9]: 0%; plant injury at 250 g/ha [9]: 0%; pest or weed control at 15.625 g/ha [10]: 0%; pest or weed control at 62.5 g/ha [10]: 0%; pest or weed control at 250 g/ha [10]: 0%; pest or weed control at 15.625 g/ha [11]: 0%; pest or weed control at 62.5 g/ha [11]: 0%; pest or weed control at 250 g/ha [11]: 0%; pest or weed control at 15.625 g/ha [12]: 0%; pest or weed control at 62.5 g/ha [12]: 0%; pest or weed control at 250 g/ha [12]: 0%
